Reference: patent US11242351B2, “Tricyclic inhibitors of the BCL6 BTB domain protein-protein interaction and uses thereof” (priority 2017, dated 2022)
Read-outs that look alike come from different tables or passages of the source.

Key:
[1] = target: BCL6 BTB domain (biotin-thrombin-BCL6 amino acids 1-129) (Homo sapiens (Human), UniProt P41182); experiment: Surface Plasmon Resonance (SPR) assay; assay type: binding; conditions: Biacore T200, single cycle kinetic analysis
Description: Surface Plasmon Resonance (SPR) Assay
SPR studies were performed using a Biacore™ T200 instrument (GE Health Sciences Inc.). […] The Biacore flow rate was set at 100 μl/min. […] Curve fitting and KD calculations were performed with the Biacore T200 Evaluation software (GE Health Sciences Inc).

[2] = test system: BCL6 reporter construct in SuDHL4-3×BCL6-TK-Luc cells; experiment: Cell-based luciferase assay (BCL6 reporter); conditions: 48 h, read-out: Luc IC50
Outline: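 SuDHL4 cells stably carrying a 3×BCL6-site TK-promoter firefly luciferase reporter, 15,000 cells/well, dosed over 10 concentrations (top 10 μM) and cultured two days at 37° C, 5% CO2. Luciferase luminescence read after room-temperature equilibration with neolite reagent.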

Karpas422 cells = experiment: Tumor cell growth inhibition assay; assay type: cell-based; conditions: Homo sapiens, KARPAS-422, 144 h, read-out: GI Karpas EC50
Outline: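 Karpas422 cells were dosed over a 10-point concentration range (top 5 μM) and grown 6 days at 37 °C, 5% CO2, in Alpha-MEM with 10% FBS. Viability was read as ATPlite luminescence.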

[3] = SuDHL4-3×BCL6-TK-Luc cells, two days
[4] = Karpas422 cells, six days, ATPlite

Structure (SMILES) | Kd [1] [nM] | IC50 [2] [nM] | EC50 (Karpas422 cells) [nM] | IC50 [2, 3] [nM] | EC50 (Karpas422 cells; [4]) [nM]
C[C@H]1CN(C2COC2)CCN1c1cc(NC(=O)Cn2cc(-c3cc(C(N)=O)c(O)c(F)c3F)c3c(=O)n4c(nc32)COCC4)c(Cl)c(F)n1 [I-34, (S)-5-(1-(2-((3-chloro-2-fluoro-6-(2-methyl-4-(oxetan-3-yl)piperazin-1-yl)pyridin-4-yl)amino)-2-oxoethyl)-4-oxo-4,6,7,9-tetrahydro-1H-pyrrolo[2′,3′:4,5]pyrimido [2,1-c][1,4]oxazin-3-yl)-3,4-difluoro-2-hydroxy-benzamide] | 7.24 | 155 | 177 | – | –
C[C@H]1COCCN1c1cc(NC(=O)Cn2cc(-c3cc(Cl)c(O)c(C(N)=O)c3)c3c(=O)n4c(nc32)CCC4)c(Cl)cn1 [I-2, (S)-3-chloro-5-(1-(2-((5-chloro-2-(3-methyl-morpholino)pyridin-4-yl)amino)-2-oxoethyl)-4-oxo-4,6,7,8-tetra-hydro-1H-dipyrrolo [1,2-a:2′,3′-d]pyrimidin-3-yl)-2-hydroxy-benzamide] | 4.48 | – | – | 95 | 304
C[C@H]1CN(C)CCN1c1cc(NC(=O)Cn2cc(-c3cc(F)c(O)c(C(N)=O)c3)c3c(=O)n4c(nc32)CCC4)c(Cl)c(F)n1 [I-55, (S)-5-(1-(2-((3-chloro-6-(2,4-dimethyl-piperazin-1-yl)-2-fluoropyridin-4-yl)amino)-2-oxoethyl)-4-oxo-4,6,7,8-tetrahydro-1H-dipyrrolo [1,2-a:2′,3′-d]pyrimidin-3-yl)-3-fluoro-2-hydroxybenzamide] | 1.5 | 13.5 | 16.6 | – | –
CO[C@@H](C)CN1CCN(c2cc(NC(=O)Cn3cc(-c4cc(C(N)=O)c(O)c(F)c4F)c4c(=O)n5c(nc43)CCC5)c(Cl)c(F)n2)[C@@H](C)C1 [I-37, 5-(1-(2-((3-chloro-2-fluoro-6-((S)-4-((S)-2-methoxypropyl)-2-methylpiperazin-1-yl)pyridin-4-yl)amino)-2-oxoethyl)-4-oxo-4,6,7,8-tetrahydro-1H-dipyrrolo[1,2-a:2′,3′-d]pyrimidin-3-yl)-3,4-difluoro-2-hydroxy-benzamide] | 14.4 | – | – | 109 | 113
C[C@H]1CNCCN1c1cc(NC(=O)Cn2cc(-c3cc(C(N)=O)c(O)c4c3OCO4)c3c(=O)n4c(nc32)CC(C)(C)C4)c(Cl)c(F)n1 [I-96, (S)-7-(1-(2-((3-chloro-2-fluoro-6-(2-methyl-piperazin-1-yl)pyridin-4-yl)amino)-2-oxo-ethyl)-7,7-dimethyl-4-oxo-4,6,7,8-tetrahydro-1H-dipyrrolo[1,2-a:2′,3′-d]pyrimidin-3-yl)-4-hydroxybenzo[d][1,3] dioxole-5-carboxamide] | 0.96 | 17.5 | 14.2 | – | –
C[C@H]1CN(CC2(C)CC2)CCN1c1cc(NC(=O)Cn2cc(-c3cc(C(N)=O)c(O)c(F)c3F)c3c(=O)n4c(nc32)CCC4)c(Cl)cn1 [I-9, (S)-5-(1-(2-((5-chloro-2-(2-methyl-4-((1-methyl-cyclopropyl)methyl)piperazin-1-yl)pyridin-4-yl)amino)-2-oxoethyl)-4-oxo-4,6,7,8-tetrahydro-1H-dipyrrolo[1,2-a:2′,3′-d]pyrimidin-3-yl)-3,4-difluoro-2-hydroxy-benzamide] | 56.8 | – | – | 743 | 692
C[C@H]1CN(CC(CO)CO)CCN1c1cc(NC(=O)Cn2cc(-c3cc(C(N)=O)c(O)c(F)c3F)c3c(=O)n4c(nc32)CCC4)c(Cl)c(F)n1 [I-46, (S)-5-(1-(2-((3-chloro-2-fluoro-6-(4-(3-hydroxy-2-(hydroxymethyl)propyl)-2-methylpiperazin-1-yl)pyridin-4-yl)amino)-2-oxoethyl)-4-oxo-4,6,7,8-tetrahydro-1H-dipyrrolo[1,2-a:2′,3′-d]pyrimidin-3-yl)-3,4-difluoro-2-hydroxybenzamide] | 3.13 | – | – | 935 | 487
C[C@H]1CNCCN1c1cc(NC(=O)Cn2cc(-c3cc(C(N)=O)c(O)c(F)c3F)c3c(=O)n4c(nc32)CCC4)c(Cl)c(F)n1 [I-53, (S)-5-(1-(2-((3-chloro-2-fluoro-6-(2-methyl-piperazin-1-yl)pyridin-4-yl)amino)-2-oxo-ethyl)-4-oxo-4,6,7,8-tetrahydro-1H-dipyrrolo [1,2-a:2′,3′-d]pyrimidin-3-yl)-3,4-difluoro-2-hydroxybenzamide] | 5.83 | – | – | 504 | 646
CCN1CCN(c2cc(NC(=O)Cn3cc(-c4cc(C(N)=O)c(O)c(F)c4F)c4c(=O)n5c(nc43)CCCCC5)c(Cl)c(F)n2)[C@@H](C)C1 [I-52, (S)-5-(1-(2-((3-chloro-6-(4-ethyl-2-methyl-piperazin-1-yl)-2-fluoropyridin-4-yl)amino)-2-oxoethyl)-4-oxo-4,6,7,8,9,10-hexahydro-1H-pyrrolo [2′,3′:4,5]pyrimido [1,2-a]azepin-3-yl)-3,4-difluoro-2-hydroxy-benzamide] | 76.5 | – | – | 820 | 1670
C[C@@H]1CN(C)C[C@H](C)N1c1cc(NC(=O)Cn2cc(-c3cc(C(N)=O)c(O)c(F)c3F)c3c(=O)n4c(nc32)CCC4)c(Cl)c(F)n1 [I-97, 5-(1-(2-((3-chloro-2-fluoro-6-((2R,6S)-2,4,6-trimethylpiperazin-1-yl)pyridin-4-yl)amino)-2-oxoethyl)-4-oxo-4,6,7,8-tetrahydro-1H-dipyrrolo[1,2-a:2′,3′-d]pyrimidin-3-yl)-3,4-difluoro-2-hydroxy-benzamide] | 11.9 | 63.5 | 70.9 | – | –
CCN1CCN(c2cc(NC(=O)Cn3cc(-c4cc(C(N)=O)c(O)c(Cl)c4F)c4c(=O)n5c(nc43)CCC5)c(Cl)c(F)n2)[C@@H](C)C1 [I-28, (S)-3-chloro-5-(1-(2-((3-chloro-6-(4-ethyl-2-methylpiperazin-1-yl)-2-fluoropyridin-4-yl)amino)-2-oxoethyl)-4-oxo-4,6,7,8-tetra-hydro-1H-dipyrrolo [1,2-a:2′,3′-d]pyri-midin-3-yl)-4-fluoro-2-hydroxybenzamide] | 135 | – | – | 1340 | 779
CN(C)c1cc(NC(=O)Cn2cc(-c3cc(C(N)=O)c(O)c(F)c3F)c3c(=O)n4c(nc32)CCC4)c(Cl)c(F)n1 [I-22, 5-(1-(2-((3-chloro-6-(dimethylamino)-2-fluoropyridin-4-yl)amino)-2-oxoethyl)-4-oxo-4,6,7,8-tetrahydro-1H-dipyrrolo [1,2-a:2′,3′-d]pyrimidin-3-yl)-3,4-difluoro-2-hydroxybenzamide] | 11.8 | – | – | 274 | 146
COc1c(O)c(C(N)=O)cc(-c2cn(CC(=O)Nc3cc(N4CCN(C5COC5)C[C@@H]4C)ncc3Cl)c3nc4n(c(=O)c23)CCC4)c1F [I-19, (S)-5-(1-(2-((5-chloro-2-(2-methyl-4-(oxetan-3-yl)piperazin-1-yl)pyridin-4-yl)amino)-2-oxoethyl)-4-oxo-4,6,7,8-tetrahydro-1H-dipyrrolo[1,2-a:2′,3′-d]pyrimidin-3-yl)-4-fluoro-2-hydroxy-3-methoxybenzamide] | 26.6 | – | – | 501 | 513
C[C@@H](C1CC1)N1CCN(c2cc(NC(=O)Cn3cc(-c4cc(C(N)=O)c(O)c(F)c4F)c4c(=O)n5c(nc43)CCC5)c(Cl)c(F)n2)[C@@H](C)C1 [I-38, 5-(1-(2-((3-chloro-6-((S)-4-((S)-1-cyclo-propylethyl)-2-methyl-piperazin-1-yl)-2-fluoropyridin-4-yl)amino)-2-oxoethyl)-4-oxo-4,6,7,8-tetrahydro-1H-dipyrrolo [1,2-a:2′,3′-d]pyrimidin-3-yl)-3,4-difluoro-2-hydroxybenzamide] | 32.5 | – | – | 193 | 444
COCCN1CCN(c2cc(NC(=O)Cn3cc(-c4cc(Cl)c(O)c(C(N)=O)c4)c4c(=O)n5c(nc43)CCC5)c(Cl)c(F)n2)[C@@H](C)C1 [I-75, (S)-3-chloro-5-(1-(2-((3-chloro-2-fluoro-6-(4-(2-methoxyethyl)-2-methylpiperazin-1-yl)pyridin-4-yl)amino)-2-oxoethyl)-4-oxo-4,6,7,8-tetra-hydro-1H-dipyrrolo [1,2-a:2′,3′-d]pyrimi-din-3-yl)-2-hydroxy-benzamide] | 3.7 | – | – | 36.7 | 48.9
CN1CCN(c2cc(NC(=O)Cn3cc(-c4cc(C(N)=O)c(O)c(F)c4F)c4c(=O)n5c(nc43)CCC5)c(Cl)cn2)CC1 [I-36, 5-(1-(2-((5-chloro-2-(4-methylpiperazin-1-yl)pyridin-4-yl)amino)-2-oxoethyl)-4-oxo-4,6,7,8-tetrahydro-1H-dipyrrolo[1,2-a:2′,3′-d]pyrimidin-3-yl)-3,4-difluoro-2-hydroxy-benzamide] | 23.2 | 701 | 480 | – | –
C[C@H]1CN(C)CCN1c1cc(NC(=O)Cn2cc(-c3cc(C(N)=O)c(O)c(F)c3F)c3c(=O)n4c(nc32)CCC4)c(Cl)cn1 [I-4, (S)-5-(1-(2-((5-chloro-2-(2,4-dimethylpiperazin-1-yl)pyridin-4-yl)amino)-2-oxoethyl)-4-oxo-4,6,7,8-tetrahydro-1H-dipyrrolo [1,2-a:2′,3′-d]pyrimidin-3-yl)-3,4-difluoro-2-hydroxybenzamide] | 23.2 | – | – | 318 | 312
